Here are results for 23 compounds from ChEMBL document CHEMBL1201862, “PubChem BioAssay data set” (2004).

What all share (experiment): growth of human tumour cells (NCI), 48 h
In test [1] the test system is SNB-78.
For test [2], the system named is DMS-114.
In test [3] the test system is LXFL 529.
Test [4] has as its system DLD-1.
Test [5] has as its system DMS-273.
Test [6] has as its system KM-20L2.
Test [7] concerns HOP-18.
In test [8] the test system is RXF 631.
Test [9] has as its system XF498.

Molecules are shown by their SMILES.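 Tested at 5 concentrations; 48 h exposure; 96-well plates; endpoints linearly interpolated, else capped at highest concentration. Here, GI50 denotes the concentration required for 50% inhibition of growth.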 Activity calls are given as the source filed them. No stated cut-off is given here; in the data, active = GI50 up to about 1.1 µM and inactive = higher.

In the case of `O=c1c2ccccc2sc2nc(CCl)nn12`, the GI50 in test [1] was > 68.4 µM (inactive); in test [2], 17.6 µM (inactive); in test [3] it was 19.5 µM (inactive); in test [4], 6.81 µM (inactive); in [5] it was 8.18 µM (inactive); in test [6] it was 14.5 µM (inactive).

With `CC1(C)C=N[N+]2(C)C3C=CC(CC3)C12` (stereo unspecified), the GI50 in [1], in [2], in test [7], in test [3], in test [4] and in [8] was > 100 µM (inactive) in each case. Besides, the GI50 in [6] is > 100 µM (inactive).

As for `O=c1[nH]c(=O)n(C2CC(O)C(O)C(CO)O2)cc1F` (stereo unspecified), the GI50 in test [1], in test [9], in [2], in test [7], in test [3] and in test [4] was > 100 µM (inactive) in each case. Moreover, the GI50 in test [8] and in test [6] was > 100 µM (inactive) each time.

Regarding `O=C(O)c1ccccc1NC(=O)C1CCCCC1`, the GI50 in [1], in [9], in test [2], in [3], in [4] and in test [5] was > 100 µM (inactive) each time. Besides, the GI50 in test [8] and in test [6] was > 100 µM (inactive) each time.

Take `COc1cccc2c1C(=O)c1c(O)c3c(c(O)c1C2=O)C[C@@](O)(C(C)=O)C[C@@H]3OC1CC(N(C)C)C(O)C(C)O1` (stereo partly specified): the GI50 is 0.00873 µM (active) in test [1]; 0.0001 µM (active) in [9]; 0.0475 µM (active) in test [2]; 0.0859 µM (active) in test [7]; 0.00684 µM (active) in [3]; 0.0153 µM (active) in test [4]. Also, the GI50 was 0.00964 µM (active) in test [5] and 0.00603 µM (active) in test [6].

For the compound `COc1ccc2cc(C(=O)c3ccccc3C(=O)O)ccc2c1`, the GI50 in test [2], in test [7], in test [3], in [4], in test [5] and in test [6] was > 100 µM (inactive) each time.

Regarding `COC(=O)/C(=N\NC(=O)C[N+](C)(C)C)C(C(=O)OC)C(=O)C(=O)Nc1ccccc1C(N)=O` (stereo unspecified), the GI50 in test [1], in test [7], in test [3], in test [4], in [5] and in test [6] was > 100 µM (inactive) in each case.

`Cn1ccnc1CCc1ccc(Cl)c(Cl)c1`: the GI50 in [1] was > 100 µM (inactive); in test [2], 67.5 µM (inactive); in test [7], 47.1 µM (inactive); in test [3] it was > 100 µM (inactive); in [4], > 100 µM (inactive); in test [5], > 100 µM (inactive). Also, in test [6], the GI50 is > 100 µM (inactive).

Consider `N#CCCN(CCC#N)c1ccc(C(=O)NN)cc1`, for which the GI50 in test [1], in test [9], in [2], in [7], in test [3] and in test [4] was > 100 µM (inactive) throughout. The GI50 in [5], in [8] and in test [6] was > 100 µM (inactive) each time.

For `CC(C)(C)N1CC1CNC(=O)C(=O)NCC1CN1C(C)(C)C` (stereo unspecified), the GI50 in test [9] was 0.526 µM (active); in test [2] it was 0.603 µM (active); in [7] it was 1.07 µM (active); in test [4] it was 0.556 µM (active); in test [6], 1.65 µM (inactive).

With `CCC1(N=[N+]=[N-])C(=O)c2ccccc2N(C)C1=O` (stereo unspecified), the GI50 in [1] is > 100 µM (inactive); in test [2], > 100 µM (inactive); in test [7], 82.2 µM (inactive); in test [3], > 100 µM (inactive); in test [4], > 100 µM (inactive); in test [5], > 100 µM (inactive). Also, the GI50 in test [6] was > 100 µM (inactive).

For the compound `CN[C@@H](C)[C@H](NC)c1ccccc1`, the GI50 in test [1], in [2], in [7], in [3], in test [4] and in test [5] was > 100 µM (inactive) each time. For the same compound, the GI50 in test [8] was > 100 µM (inactive).

As for `C[C@@H]1OC2(O)[C@H]3CCCN3S(=O)(=O)CCN2C1=O` (stereo partly specified), the GI50 is > 100 µM (inactive) in test [1]; 0.0306 µM (active) in test [9]; > 100 µM (inactive) in test [7]; > 100 µM (inactive) in [3]; > 100 µM (inactive) in [4]; > 100 µM (inactive) in [8]. Moreover, in test [6], the GI50 was > 100 µM (inactive).

Turning to `COC(=O)C(C(=O)C(=O)Nc1c(C)cccc1C)c1cnc2ccccc2n1` (stereo unspecified), the GI50 in [1], in test [9], in [2], in test [7], in test [3] and in [5] was > 100 µM (inactive) in each case. Further, the GI50 in test [8] and in [6] was > 100 µM (inactive) each time.

Turning to `CCc1cccc(C)c1NC(=O)CC(=O)NNC(N)=S`, the GI50 in [1], in test [9], in test [2], in test [7], in [3] and in test [4] was > 100 µM (inactive) throughout. For the same compound, the GI50 in test [5] and in test [6] was > 100 µM (inactive) throughout.

Consider `CN(C)c1ccc2c(=O)c3ccccc3oc2n1`, for which the GI50 in test [1] was > 100 µM (inactive); in test [9], > 100 µM (inactive); in [2] it was 82.2 µM (inactive); in test [3] it was 84.3 µM (inactive); in [4] it was 73.5 µM (inactive); in test [5], > 100 µM (inactive). Also, the GI50 in test [8] and in [6] was > 100 µM (inactive) throughout.

As for `CC(=O)NC1C(=O)CC(c2ccccc2)N(C)C1c1ccccc1` (stereo unspecified), the GI50 in test [1], in [2], in test [3], in test [4], in [5] and in test [8] was > 100 µM (inactive) each time. Besides, in [6], the GI50 is > 100 µM (inactive).

Turning to `CCCCCCCCCCCC(=O)OCC1OC(n2cc(F)c(=O)[nH]c2=O)C(NC(=O)OCc2ccccc2)C(OC(=O)CCCCCCCCCCC)C1O` (stereo unspecified), the GI50 in test [1], in [9], in [2], in test [7], in [3] and in [4] was > 100 µM (inactive) in each case. Moreover, the GI50 in test [5], in test [8] and in test [6] was > 100 µM (inactive) throughout.

In the case of `CC12CCC3(C1)[C@H](CC2=O)C[C@@H](OC(=O)c1ccccc1)C1C(C)(CO)CCC[C@@]13C` (stereo partly specified), the GI50 is 34 µM (inactive) in test [1]; 0.156 µM (active) in test [2]; 26.7 µM (inactive) in test [7]; 0.6 µM (active) in test [3]; 2.48 µM (inactive) in [4]; 0.625 µM (active) in test [5]. Besides, in test [6], the GI50 is 1.82 µM (inactive).

`COc1ccc(NC(=O)C(=O)Cc2nc3ccc([N+](=O)[O-])cc3nc2O)c(OC)c1`: the GI50 in test [2] is > 100 µM (inactive); in test [7], 56.1 µM (inactive); in [3] it was > 100 µM (inactive); in test [4], > 100 µM (inactive); in [5], > 100 µM (inactive); in [6] it was > 100 µM (inactive).

For `CN(C)c1ccc(/C=C2\CNC/C(=C\c3ccc(N(C)C)cc3)C2=O)cc1`, the GI50 was > 100 µM (inactive) in test [1]; 16.4 µM (inactive) in [9]; 18.8 µM (inactive) in test [2]; 18.9 µM (inactive) in test [7]; 37.4 µM (inactive) in test [3]; 18.9 µM (inactive) in test [4]. The GI50 was 12.7 µM (inactive) in test [5], 21.7 µM (inactive) in [8] and 30.1 µM (inactive) in [6].

For the compound `COc1cc([C@@H]2c3cc4c(c(O)c3C[C@H]3COC(=O)[C@@H]32)OCO4)cc(OC)c1OC` [BETA-PELTATIN A], the GI50 in test [1] was 0.015 µM (active); in test [9], 0.015 µM (active); in [2], 0.015 µM (active); in [7] it was 1.26 µM (inactive); in test [4] it was 0.015 µM (active); in test [5] it was 0.015 µM (active).

`Nc1ccc2c(c1)CN1C(=O)c3ccccc3C1=N2` [DANIQUIDONE]: the GI50 in test [1] is 25 µM (inactive); in [2] it was 70.5 µM (inactive); in test [7], 108 µM (inactive); in test [3], 82.8 µM (inactive); in [4], 51.1 µM (inactive); in test [5] it was 32.4 µM (inactive). Moreover, the GI50 in test [6] was 59 µM (inactive).
